Laboratory results reported in patent US8784849B2, “Hydroxyapatite-targeting poly(ethylene glycol) and related polymers” (Nektar Therapeutics, priority 2000, dated 2014).

Tests used:
[1] = Binding of PEG-AHPDP derivatives to hydroxyapatite in vitro; conditions: 37° C., 5 mM sodium phosphate buffer pH 7.2
Procedure: Hydroxyapatite (Fast Flow, Fluka, 12 mg) was equilibrated in 1 ml of 5 mM sodium phosphate buffer, pH 7.2 for 24 hours at 37° C.

[2] = Binding of PEG(2,000)-α-AHPDP-ω-protein to hydroxyapatite in vitro; conditions: 37° C., 5 mM sodium phosphate buffer pH 7.2; for percentage adsorbed to hydroxyapatite: by 1^1/2 hour incubation; for adsorption to hydroxyapatite (in words): 1^1/2 hour incubation
Procedure: Hydroxyapatite (Fast Flow, Fluka, 120 mg) was equilibrated in 1 ml of 5 mM sodium phosphate buffer, pH 7.2 for 24 hours at 37° C. Native lysozyme or the PEG-lysozyme conjugate was mixed with the hydroxyapatite suspension in a 1:1 volume ratio and stirred at 37° C. Samples were taken from the mixture at various time points and analyzed for the percentage of unbound protein or PEG-protein conjugate by gel permeation chromatography. […] All samples had similar protein concentrations.

[3] = Excretion study of 125I-labelled PEG derivatives in mice; assay type: in vivo, Male ICR mice; conditions: for average % [125I] captured (urine and feces, % of total counts injected): 2 μCi i.v. tail vein, n=6; for radiolabeled compound excreted in the urine: 8 hr collection, share of captured radiolabel
Procedure: PEG(2,000)-α-L-tyrosine-ω-AHPDP and mPEG(2,000)-α-L-tyrosine were iodinated using a standard chloramine-T procedure (Bolton, Methods Enzymol. 124: 18-29, 1986). In brief, a 15 μL aliquot of PEG(2,000)-α-L-tyrosine-ω-AHPDP or mPEG(2,000)-α-L-tyrosine (2 μg/μL total weight) was mixed with 50 μL of […] phosphate buffer. To this was added 1 mCi of NaI^125 and 10 μL of Chloramine-T (1 μg/μL). The mixture was finger vortexed for 30s followed by addition of 100 μL-Cys (2 µg/µL), followed by another 30s of finger vortexing. The purification was carried out by reverse-phase chromatography. The samples were eluted at 37° C. using a curvilinear gradient of 0.1% trifluroacetic acid (TFA) in acetonitrile (19-63%) versus 0.1% aqueous TFA over 30 min at 1.5 ml.min^−1.
Male ICR mice (20-25 g) were administered either 2 μCi of PEG(2,000)-α-L-tyrosine-ω-AHPDP or mPEG(2,000)-α-L-tyrosine via tail vein injection (100 μL; i.v.). The mice were placed into metabolism cages and urine and feces were collected at the following time points (1, 2, 3, 4, 6, & 8 hr post-injection) (n=6).

[4] = in vivo; cited from earlier work

NCCC(O)(P(=O)(O)O)P(=O)(O)O [AHPDP, 3-amino-1-hydroxypropane-1,1-diphosphonic acid, reference compound]
adsorption half-life on hydroxyapatite [1]: around 1 min

2-PEGmer: PEG-lysozyme multimer with two PEG(2,000)-α-AHPDP chains, separated by size exclusion [Example 2-PEGmer]
percentage adsorbed to hydroxyapatite [2]: 100%

1-PEGmer: PEG-lysozyme multimer with one PEG(2,000)-α-AHPDP chain, separated by size exclusion [Example 1-PEGmer]
adsorption to hydroxyapatite (in words) [2]: limited adsorption

PEG(2,000)-α-methoxy-ω-L-tyrosine
adsorption to hydroxyapatite (in words) ([1]; 0.1-1.0 mg/ml): did not show any adsorption
average % [125I] captured (urine and feces, % of total counts injected) ([3]; 8 hour time course): 47.5%
radiolabeled compound excreted in the urine ([3]; i.v.): greater than 95%

Native lysozyme: chicken egg white lysozyme, MW=14,300 Da, used as a model protein [reference compound]
adsorption to hydroxyapatite (in words) [2]: did not adsorb

PEG(5,000)-α-amine-ω-AHPDP
adsorption half-life on hydroxyapatite [1]: 45 min

CC(O)(P(=O)(O)O)P(=O)(O)O [Etidronate]
half-life in bone [4]: greater than 90 days

3-PEGmer: PEG-lysozyme multimer with three PEG(2,000)-α-AHPDP chains, separated by size exclusion [Example 3-PEGmer]
percentage adsorbed to hydroxyapatite [2]: 100%

PEG(2,000)-α-tyrosine-ω-AHPDP [PEG(2,000)-α-L-tyrosine-ω-AHPDP]
adsorption half-life on hydroxyapatite [1]: 19 min
average % [125I] captured (urine and feces, % of total counts injected) ([3]; 8 hour time course): 7.7%
[125I] retained in the body versus mPEG(2,000)-α-L-tyrosine (in words) ([3]; i.v., 8-hour period): significantly greater percentage
fold lower percentage of [125I] captured than mPEG(2,000)-α-L-tyrosine ([3]; i.v., 8 hour time course): 5 fold
radiolabeled compound excreted in the urine ([3]; i.v.): ~95%
